Consider 30 compounds from US20110184188A1, “Insecticidal Benzenedicarboxamide Derivative” (priority 2008, published 2011).

The subject of one data set is Myzus persicae. The data set can be described thus: Test to Myzus persicae (Brassica pekinensis leaf disc spray). The format is in vivo. The settings on record: foliar, read-out: pesticide effect, insect mortality. On the procedure: Solvent: acetone 78.0 parts by weight and dimethylformamide 1.5 parts by weight Emulsifier: alkyl aryl polyglycol ether 0.5 parts by weight
(§1) In order to prepare preparations of suitable active compounds, 1 part by weight of each of the active compounds was blended with the above amount of the solvent containing the above amount of the emulsifier, and the resulting mixture was diluted to a prescribed concentration with water.
On a leaf disc of Brassica pekinensis, Myzus persicae including all growth stage was inoculated. The solution diluted with water and having a prescribed concentration of the active compound was sprayed by a spray gun. Insect mortality was calculated after prescribed days elapsed. 100% insect mortality means that all the individuals died, and 0% insect mortality means that all the individuals were alive.
`CSC[C@H](C)NC(=O)c1c(OC(F)(F)F)cccc1C(=O)Nc1ccc(Cn2nc(C(F)(F)F)cc2C(F)(F)F)cc1C` [13-13, N^1-(4-{[3,5-bis(trifluoromethyl)-1H-pyrazol-1-yl]methyl}-2-methylphenyl)-N^2-[(1S)-1-methyl-2-(methylthio)ethyl]-3-(trifluoromethoxy)-1,2-benzenedicarboxamide]: the mortality (commonly the share of the test organisms that died) at 100 g/ha is ≥ 70%.
Regarding `CSC[C@H](C)NC(=O)c1c(C#N)cccc1C(=O)Nc1ccc(Cn2nc(C(F)(F)F)cc2C(F)(F)F)cc1C` [13-172, N^1-(4-{[3,5-bis(trifluoromethyl)-1H-pyrazol-1-yl]methyl}-2-methylphenyl)-3-cyano-N^2-[(1S)-1-methyl-2-(methylthio)ethyl]-1,2-benzenedicarboxamide], the mortality at 100 g/ha was ≥ 70%.

Still in this data set, the particulars now being: foliar, spraying amount 100 g/ha, read-out: pesticide effect, insect mortality.
Regarding `CCSC[C@H](C)NC(=O)c1c(SC)cccc1C(=O)Nc1ccc(Cn2nc(C(F)(F)F)cc2C(F)(F)F)cc1C` [13-291, N^1-(4-{[3,5-bis(trifluoromethyl)-1H-pyrazol-1-yl]methyl}-2-methylphenyl)-N^2-[(1S)-1-methyl-2-(ethylthio)ethyl]-3-methylthio-1,2-benzenedicarboxamide], the mortality at 100 g/ha was ≥ 70%.

Test system in another data set: not listed separately
The data set can be described thus: logP(acid) by reverse phase (C18) chromatography at pH 2.3. The format is physicochemical. Particulars: reverse phase (C18) chromatography at pH 2.3.
Consider `Cc1cc(Cn2nc(C(F)(F)C(F)(F)F)nc2C(F)(F)F)ccc1NC(=O)c1c(Cl)ccc(Cl)c1C(=O)N[C@@H](C)CS(C)(=O)=O` [11-29], for which the “logP (acid)” value is “logP (acid) 3.50”.

The data set is the same for the next values; noted with them: reverse phase (C18) chromatography, pH 2.3.
`Cc1nc(Cn2nc(C(F)(F)F)nc2C(F)(F)F)ccc1NC(=O)c1cccc(S(C)(=O)=O)c1C(=O)N[C@@H](C)CS(C)(=O)=O` [14-368]: the “logP (acid)” value is listed as “logP (acid) 2.43”.

Still in this data set, the particulars now being: reverse phase (C18) chromatography, pH2.3, 0.1% phosphoric acid aqueous solution / acetonitrile, linear gradient 10-95% acetonitrile.
Consider `CSC[C@H](C)NC(=O)c1c(C(=O)Nc2ccc(Cn3nc(C(F)(F)F)nc3C(F)(F)F)cc2C)ccc(C(F)(F)F)c1Cl` [9-18], for which the “logP (acid)” value is recorded as “logP (acid) 4.30”.

A further data set relates to Spodoptera litura third instar larvae. As to the kind of experiment: Test to larva of Spodoptera litura (sweet potato leaf dip). Particulars: Spodoptera litura, foliar, 168 h, read-out: insect mortality. The format is in vivo. On the procedure: Test to Larva of Spodoptera litura
(§2) Solvent: dimethylformamide 3 parts by weight Emulsifier: polyoxyethylene alkyl phenyl ether 1 part by weight
as §1
Leaves of sweet potato were immersed in the tested liquid medication of a prescribed concentration diluted with water. After air drying of the liquid medication, the leaves were put into a petri dish of a diameter of 9 cm, and 10 Spodoptera litura third instar larvae were released in the petri dish, and the petri dish was placed in a constant temperature room of 25° C. Two days later and four days later, leaves of sweet potato were added. Seven days later, the number of dead insects was examined, and insect mortality was calculated.
In the present test, results of 2 petri dishes for each compound were averaged.
For `CSC[C@H](C)NC(=O)c1c(Cl)cccc1C(=O)Nc1ccc(CN2N=C(C(F)(F)C(F)(F)F)NC2C(F)(F)F)cc1C` (stereo partly drawn) [16-4, 3-chloro-N^1-(2-methyl-4-{[3-(pentafluoroethyl)-5-(trifluoromethyl)-4,5-dihydro-1H-1,2,4-triazol-1-yl]methyl}phenyl)-N^2-[(1S)-1-methyl-2-(methylthio)ethyl]-1,2-benzenedicarboxamide], the mortality at 20 ppm is 100%.
For the compound `CSC[C@H](C)NC(=O)c1c(OC(F)(F)F)cccc1C(=O)Nc1ccc(Cn2nc(C(F)(F)F)cc2C(F)(F)F)cc1C` [13-13, N^1-(4-{[3,5-bis(trifluoromethyl)-1H-pyrazol-1-yl]methyl}-2-methylphenyl)-N^2-[(1S)-1-methyl-2-(methylthio)ethyl]-3-(trifluoromethoxy)-1,2-benzenedicarboxamide], the mortality at 20 ppm came out at 100%.
The same measure, in the same setting: under `CSC[C@H](C)NC(=O)c1c(C#N)cccc1C(=O)Nc1ccc(Cn2nc(C(F)(F)F)cc2C(F)(F)F)cc1C` [13-172, N^1-(4-{[3,5-bis(trifluoromethyl)-1H-pyrazol-1-yl]methyl}-2-methylphenyl)-3-cyano-N^2-[(1S)-1-methyl-2-(methylthio)ethyl]-1,2-benzenedicarboxamide] stands 100%.

The same data set, now with this note: foliar, 168 h; Spodoptera litura third instar larvae, active ingredient concentration 20 ppm, seven days later, 25° C.; read-out: insect mortality.
For the compound `Cc1cc(Cn2cc(C(F)(F)C(F)(F)F)c(C(F)(F)C(F)(F)F)n2)ccc1NC(=O)c1cccc(Br)c1C(=O)N[C@@H](C)CS(C)(=O)=O` [13-140, N^1-(4-{[3,4-bis(pentafluoroethyl)-1H-pyrazol-1-yl]methyl}-2-methylphenyl)-3-bromo-N^2-[(1S)-1-methyl-2-(methylsulfonyl)ethyl]-1,2-benzenedicarboxamide], the mortality at 20 ppm was determined as 100%.
The same measure, in the same setting: the result for `CON=C(c1cn(Cc2ccc(NC(=O)c3cccc(I)c3C(=O)N[C@@H](C)CSC)c(C)c2)nc1C(F)(F)F)C(F)(F)F` [13-147, 3-iodo-N^2-[(1S)-1-methyl-2-(methylthio)ethyl]-N^1-[2-methyl-4-({4-[2,2,2-trifluoro-N-methoxyethanimidoyl]-3-(trifluoromethyl)-1H-pyrazol-1-yl}methyl)phenyl]-1,2-benzenedicarboxamide] reads 100%; that for `CCSC[C@H](C)NC(=O)c1c(SC)cccc1C(=O)Nc1ccc(Cn2nc(C(F)(F)F)cc2C(F)(F)F)cc1C` [13-291, N^1-(4-{[3,5-bis(trifluoromethyl)-1H-pyrazol-1-yl]methyl}-2-methylphenyl)-N^2-[(1S)-1-methyl-2-(ethylthio)ethyl]-3-methylthio-1,2-benzenedicarboxamide], 100%.
The same measure, in the same setting: the result for `COC(=O)CNC(=O)C(C)(C)NC(=O)c1c(Cl)cccc1C(=O)Nc1ccc(Cn2nc(C(F)(F)F)cc2C(F)(F)F)cc1C` [13-121, methyl N-{2-[(4-{[3,5-bis(trifluoromethyl)-1H-pyrazol-1-yl]methyl}-2-methylphenyl)carbamoyl]-6-chlorobenzoyl)-2-methylalanyl glycinate] reads 100%; that for `CSC[C@H](C)NC(=O)c1c(Cl)cccc1C(=O)Nc1ccc(CN2N=C(C(F)(F)C(F)(F)F)N(C(C)=O)C2C(F)(F)F)cc1C` (stereo partly drawn) [16-6, N^1-(4-{[4-acetyl-3-(pentafluoroethyl)-5-(trifluoromethyl)-4,5-dihydro-1H-1,2,4-triazol-1-yl]methyl}-2-methylphenyl)-3-chloro-N^2-[(2S)-1-(methylsulfanyl)propan-2-yl]-1,2-benzenedicarboxamide], 100%; that for `Cc1cc(Cn2nc(C(F)(F)C(F)(F)F)nc2C(F)(F)F)ccc1NC(=O)c1cccc(Cl)c1C(=O)NC(C)(C)C=O` [14-130, 3-chloro-N^2-(1,1-dimethyl-2-oxoethyl)-N^1-(2-methyl-4-{[3-(pentafluoroethyl)-5-(trifluoromethyl)-1H-1,2,4-triazol-1-yl]methyl}phenyl)-1,2-benzenedicarboxamide], 100%.

The subject of a further data set is Myzus persicae resistant to organophosphorus pesticide and carbamate agent. As to the kind of experiment: Test to Myzus persicae resistant to organophosphorus pesticide and carbamate agent (egg plant seedlings). Particulars: 168 h, effective ingredient concentration 100 ppm, seven days after spraying, read-out: pesticide effect, insect mortality. The format is in vivo. On the procedure:
Test to Myzus persicae resistant to organophosphorus pesticide and carbamate agent
as §2, §1
On egg plant seedlings planted in a plastic pot of a diameter of 6 cm, 30 bred Myzus persicae resistant to organophosphorus pesticide and carbamate agent per one seedling were inoculated. After 1 day elapsed since the inoculation, a sufficient amount of the solution diluted with water and having a prescribed concentration of the active compound was sprayed. After the spraying, the pot was allowed to stand in a greenhouse of 28° C. After seven days elapsed since the spraying, insect mortality was calculated. The test was carried out twice.
For `CSC[C@H](C)NC(=O)c1c(Cl)cccc1C(=O)Nc1ccc(CN2N=C(C(F)(F)C(F)(F)F)NC2C(F)(F)F)cc1C` (stereo partly drawn) [16-4, 3-chloro-N^1-(2-methyl-4-{[3-(pentafluoroethyl)-5-(trifluoromethyl)-4,5-dihydro-1H-1,2,4-triazol-1-yl]methyl}phenyl)-N^2-[(1S)-1-methyl-2-(methylthio)ethyl]-1,2-benzenedicarboxamide], the mortality at 100 ppm amounted to 100%.
Still for that read-out and setting: under `CSC[C@H](C)NC(=O)c1c(OC(F)(F)F)cccc1C(=O)Nc1ccc(Cn2nc(C(F)(F)F)cc2C(F)(F)F)cc1C` [13-13, N^1-(4-{[3,5-bis(trifluoromethyl)-1H-pyrazol-1-yl]methyl}-2-methylphenyl)-N^2-[(1S)-1-methyl-2-(methylthio)ethyl]-3-(trifluoromethoxy)-1,2-benzenedicarboxamide] stands 100%; under `CSC[C@H](C)NC(=O)c1c(C#N)cccc1C(=O)Nc1ccc(Cn2nc(C(F)(F)F)cc2C(F)(F)F)cc1C` [13-172, N^1-(4-{[3,5-bis(trifluoromethyl)-1H-pyrazol-1-yl]methyl}-2-methylphenyl)-3-cyano-N^2-[(1S)-1-methyl-2-(methylthio)ethyl]-1,2-benzenedicarboxamide], 100%.

Test system in another data set: not given
Assay: not given
Conditions: not given
Turning to `CCC(C)NC(=O)c1c(Cl)cccc1C(=O)Nc1ccc(Cn2nc(C(F)(F)F)cc2C(F)(F)F)cc1C` (stereo not drawn), the melting point – broadly, the temperature, or range, at which the solid turns liquid – was 187 to 188 °C.
The same measure, in the same setting: under `Cc1cc(Cn2nc(C(F)(F)F)cc2C(F)(F)F)ccc1NC(=O)c1cccc(Cl)c1C(=O)NC(C)(C)C(=O)O` stands 179 to 184 °C; under `Cc1cc(Cn2nc(C(F)(F)C(F)(F)F)nc2C(F)(F)F)ccc1NC(=O)c1cccc(-c2cc(C(F)(F)F)cc(C(F)(F)F)c2)c1C(=O)N[C@@H](C)CS(C)(=O)=O`, 201 °C; under `CSC[C@H](C)NC(=O)c1c(Cl)cccc1C(=O)Nc1ccc(Cn2c(C)nnc2C(F)(F)F)cc1C`, 168 to 170 °C.
Same read-out and setting: the result for `Cc1cc(Cn2nc(C(F)(F)C(F)(F)F)nc2C(F)(F)F)ccc1NC(=O)c1cccc(Cl)c1C(=O)NC(C)(C)C=NO` reads 203 to 206 °C; that for `CC(C)NC(=O)c1ccccc1C(=O)Nc1ccc(Cn2nc(C(F)(F)F)cc2C(F)(F)F)cc1`, 176 to 178 °C; that for `CCN(CC)C(=O)c1c(Cl)cccc1C(=O)Nc1ccc(Cn2nc(C(F)(F)F)cc2C(F)(F)F)cc1C`, 105 to 107 °C.
The same measure, in the same setting: the result for `CCC(C)NC(=O)c1cccc(Cl)c1C(=O)Nc1ccc(Cn2nc(C(F)(F)F)cc2C(F)(F)F)cc1C` (stereo not drawn) reads 211 to 212 °C; that for `Cc1cc(Cn2nc(C(F)(F)C(F)(F)F)nc2C(F)(F)F)ccc1NC(=O)c1cccc(Cl)c1C(=O)NC(C)(C)CO`, 105 to 110 °C.
As to `Cc1cc(Cn2nc(C(F)(F)F)cc2C(F)(F)F)ccc1NC(=O)c1ccccc1C(=O)NC(C)C`, the melting point fell in the range of 170 to 172 °C.

Test system in another data set: not listed separately
The data set can be described thus: logP(neutral) by reverse phase chromatography, potassium dihydrogen phosphate / acetonitrile. The format is physicochemical. Particulars: 0.0025M potassium dihydrogen phosphate aqueous solution / acetonitrile, linear gradient 10-95% acetonitrile.
As to `CSC[C@H](C)NC(=O)c1c(C(=O)Nc2ccc(Cn3nc(C(F)(F)F)cc3C(F)(F)F)nc2C)ccc(F)c1Br` [9-10], the “logP (neutral)” value was “logP (neutral) 3.74”.
Consider `Cc1cc(Cn2nc(C(F)(F)C(F)(F)F)nc2C(F)(F)F)ccc1NC(=O)c1ccc(C(F)(F)F)c(Cl)c1C(=O)N[C@@H](C)C[S+](C)[O-]` (stereo partly drawn) [9-24], for which the “logP (neutral)” value is “logP (neutral) 3.13”.

The same data set, now with this note: potassium dihydrogen phosphate / acetonitrile.
Turning to `Cc1cc(Cn2nc(C(F)(F)C(F)(F)F)nc2C(F)(F)F)ccc1NC(=O)c1c(Cl)ccc(Cl)c1C(=O)N[C@@H](C)C[S+](C)[O-]` (stereo partly drawn) [11-28], the “logP (neutral)” value is “logP (neutral) 2.90”.
On the same count and under the same terms, the result for `CSC[C@H](C)NC(=O)c1c(C(=O)Nc2ccc(Cn3nc(C(F)(F)F)cc3C(F)(F)F)nc2C)cccc1S(=O)(=O)N(C)C` [13-287] reads 3.42.
On the same count and under the same terms, the result for `Cc1nc(Cn2nc(C(F)(F)F)cc2C(F)(F)F)ccc1NC(=O)c1cc(Cl)cc(Cl)c1C(=O)N[C@@H](C)CS(C)(=O)=O` [10-3] reads 3.10.
Same read-out and setting: under `CSC[C@H](C)NC(=O)c1c(Br)cccc1C(=O)Nc1ccc(Cn2nc(C(F)(F)C(F)(F)C(F)(F)F)cc2C(F)(F)F)nc1C` [13-128] stands 4.42.
Consider `Cc1nc(Cn2cc(C(F)(F)C(F)(F)F)c(C(F)(F)C(F)(F)F)n2)ccc1NC(=O)c1cccc(I)c1C(=O)NC(C)C[S+](C)[O-]` (mixture of isomers) [13-159], for which the “logP (neutral)” value amounted to 3.08.
On to `CSC[C@H](C)NC(=O)c1c(Cl)cccc1C(=O)Nc1ccc(Cn2nc(C(F)(F)F)n(C)c2=O)nc1C` [14-320], for which the “logP (neutral)” value was 2.16.
